Results published in the supplement of paper PMC10307832.

Assays:
Experiment in all cases: relative viability (nuclei count vs DMSO), 5 days (fraction); higher = more cells survive
[1] = compound: C=CC(=O)N1CCC[C@@H](n2nc(-c3ccc(Oc4ccccc4)cc3)c3c(N)ncnc32)C1 [Ibrutinib] + CCNC(=O)c1noc(-c2cc(C(C)C)c(O)cc2O)c1-c1ccc(CN2CCOCC2)cc1 [Luminespib] (partner 0.01 µM)
How it was run: (§1)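 A single step with final 0.05% Triton X-100, 1% formaldehyde and 1 ug/ml Hoechst fixed the cells and stained nuclei 5 days after treatment. Lung cancer cell lines in 1536-well plates had been treated by pin tool the day after seeding with one drug alone or a fixed anchor-drug dose plus five library-drug doses (not always all listed) in √10 steps, and nuclei were counted on 4× images. Relative viability is the ratio of nuclei in treated wells to nuclei in vehicle wells, taken as the median of duplicate plates.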

[2] = compound: C=CC(=O)N1CCC[C@@H](n2nc(-c3ccc(Oc4ccccc4)cc3)c3c(N)ncnc32)C1 [Ibrutinib] + Nc1nc2[nH]cc(CCc3ccc(C(=O)N[C@@H](CCC(=O)O)C(=O)O)cc3)c2c(=O)[nH]1 [Pemetrexed] (partner 0.2 µM)
How it was run: as §1

[3] = compound: C=CC(=O)Nc1cc(-n2c(=O)ccc3cnc4ccc(-c5ccc(NS(C)(=O)=O)cc5)cc4c32)ccc1C [BMX-IN-1] + COc1cc2c(Oc3ccc(NC(=O)C4(C(=O)Nc5ccc(F)cc5)CC4)cc3F)ccnc2cc1OCCCN1CCOCC1 [Foretinib] (partner 0.25 µM)
How it was run: as §1

[4] = compound: C=CCc1cccc(/C=N/NC(=O)CN2CCN(Cc3ccccc3)CC2)c1O [PAC-1] + COc1cccc2cc(-c3nc([C@H]4CC[C@H](C(=O)O)CC4)n4ncnc(N)c34)[nH]c12 [OSI-027] (partner 0.5 µM)
How it was run: as §1

Row | Cell Line | relative viability ([1]; first compound 0.005 µM) | relative viability ([1]; first compound 0.01581 µM) | relative viability ([1]; first compound 0.05 µM) | relative viability ([1]; first compound 0.1581 µM) | relative viability ([1]; first compound 0.5 µM) | relative viability ([2]; first compound 0.005 µM) | relative viability ([2]; first compound 0.01581 µM) | relative viability ([2]; first compound 0.05 µM) | relative viability ([2]; first compound 0.1581 µM) | relative viability ([2]; first compound 0.5 µM) | relative viability ([3]; first compound 0.02 µM) | relative viability ([3]; first compound 0.2 µM) | relative viability ([3]; first compound 0.6325 µM) | relative viability ([3]; first compound 2 µM) | relative viability ([4]; first compound 0.02 µM) | relative viability ([4]; first compound 0.06325 µM) | relative viability ([4]; first compound 0.2 µM) | relative viability ([4]; first compound 2 µM)
1 | PC-3 [JPC-3] | 0.65 | 0.64 | 0.74 | 0.806 | 0.505 | 1.14 | 0.995 | 0.72 | 0.624 | 0.365 | 1.12 | 1.16 | 1.09 | 1 | 0.834 | 0.698 | 0.773 | 0.821
2 | NCI-H2228 | 0.121 |  | 0.116 | 0.131 | 0.144 | 0.33 | 0.345 | 0.328 | 0.397 | 0.445 | 1.19 | 1.08 | 1.03 | 0.916 | 0.543 | 0.513 | 0.512 | 0.564
3 | NCI-H1650 | 0.211 | 0.196 | 0.192 | 0.194 | 0.209 | 0.347 | 0.308 | 0.348 | 0.42 | 0.287 | 1.05 | 1.46 | 1.2 | 1.17 | 0.569 | 0.614 | 0.55 | 0.612
4 | LCLC-103H | 1 | 0.905 | 0.896 | 1.09 | 0.897 | 0.43 | 0.467 | 0.467 | 0.464 | 0.544 | 0.879 | 0.78 | 0.882 | 0.735 | 0.45 | 0.467 | 0.436 | 0.559
5 | HCC-15 | 0.362 | 0.278 | 0.488 | 0.308 | 0.243 | 0.238 | 0.223 | 0.238 | 0.235 | 0.322 | 1.24 | 1.13 | 1.11 | 1.02 | 0.668 | 0.726 | 0.672 | 0.684
6 | UMC-11 | 0.873 | 0.999 | 1.07 | 1.05 | 0.98 | 0.87 | 0.732 | 0.832 | 0.824 | 0.821 | 1.15 | 1.13 | 0.981 | 1.11 | 0.546 | 0.459 | 0.461 | 0.472
7 | NCI-H2087 | 0.161 | 0.136 | 0.153 |  | 0.165 | 0.639 | 0.626 | 0.748 |  | 0.694 | 1.25 | 1.12 | 1.37 | 1.26 | 0.467 | 0.58 | 0.401 | 0.497
8 | NCI-H3122 | 0.0621 | 0.0853 | 0.101 | 0.104 | 0.0947 | 0.214 | 0.203 | 0.219 | 0.191 | 0.301 | 1 | 0.951 | 0.957 | 0.984 | 1.25 | 0.972 | 0.919 | 0.925
9 | NCI-H661 | 1 | 0.835 | 0.772 | 0.934 | 0.653 | 0.868 | 0.927 | 0.89 | 0.902 | 0.8 | 1.16 | 0.961 | 1.11 | 1.02 | 0.631 | 0.747 | 0.785 | 0.577
10 | NCI-H1703 |  |  |  |  |  |  |  |  |  |  | 0.358 | 0.351 | 0.298 | 0.322 |  |  |  | 
11 | NCI-H2342 | 0.719 | 0.608 | 0.707 | 0.655 | 0.497 | 0.455 | 0.806 | 0.618 | 0.723 | 0.715 | 1.06 | 1.04 | 1.04 | 1.24 | 0.653 | 0.574 | 0.65 | 0.682
12 | NCI-H838 | 0.288 |  | 0.266 | 0.326 | 0.325 | 0.255 | 0.236 | 0.246 | 0.265 | 0.292 | 1.3 | 1.25 | 1.24 | 0.982 | 0.359 | 0.386 | 0.373 | 0.398
13 | ABC-1 | 0.476 |  | 0.68 |  | 0.562 |  |  |  |  |  | 1.21 | 0.999 | 1.19 | 0.955 | 0.478 | 0.44 | 0.468 | 0.457
14 | NCI-H441 | 0.362 | 0.359 | 0.266 | 0.36 | 0.235 | 0.287 | 0.269 | 0.293 | 0.263 | 0.301 | 1.26 | 1.05 | 1.14 | 0.876 | 0.521 | 0.759 | 0.501 | 0.413
15 | NCI-H2126 | 0.651 | 0.756 | 0.855 | 0.962 | 0.75 | 0.509 | 0.653 | 0.717 | 0.671 | 0.69 | 1.15 | 1.21 | 1.32 | 1.25 | 0.725 | 0.717 | 0.712 | 0.687
16 | NCI-H1651 | 0.847 | 1.05 | 0.93 | 0.876 | 0.921 | 0.436 | 0.661 | 0.572 | 0.479 | 0.558 | 1 | 0.907 | 0.909 | 0.773 | 0.766 | 0.744 | 0.64 | 0.612
17 | NCI-H1734 | 0.208 | 0.189 | 0.235 | 0.188 | 0.175 | 0.423 | 0.415 | 0.461 | 0.387 | 0.489 | 1.01 | 0.954 | 1.08 | 0.796 | 0.607 | 0.589 | 0.522 | 0.642
18 | NCI-H1792 |  | 0.486 | 0.485 | 0.364 | 0.367 |  | 0.67 | 0.96 | 0.818 | 0.596 |  |  |  |  | 0.731 | 0.715 | 0.684 | 0.733
19 | NCI-H1299 |  |  |  |  |  |  |  |  |  |  | 1.12 | 1.06 | 1.16 | 1.06 |  |  |  | 
20 | EBC-1 |  |  |  |  |  |  |  |  |  |  | 0.0974 | 0.114 | 0.144 | 0.101 |  |  |  | 
21 | HCC-366 |  |  |  |  |  | 0.259 | 0.247 | 0.307 | 0.241 | 0.704 | 1.03 | 0.962 | 1.01 | 0.886 | 0.946 | 0.863 | 0.894 | 1.26
22 | IA-LM |  |  |  |  |  |  |  |  |  |  | 1.53 | 1.31 | 1.15 | 1.21 |  |  |  | 
23 | A549 |  |  |  |  |  |  |  |  |  |  | 1.14 | 0.971 | 1.2 | 0.982 |  |  |  | 
